Drawing on patent US20250320213A1, “Nitrogen-Containing Heterocyclic Compounds” (Pfizer Inc., priority 2024, published 2025), this text covers EC50 and IC50 for 16 molecules.

Read-outs that look alike come from different tables or passages of the source.

One assay deals with T1, STAT6 (Homo sapiens, UniProt P42226).
T1 construct: stably transfected HaCaT keratinocyte cell line, which expresses NanoLuc luciferase reporter gene under the transcriptional control of the STAT6 responsive promoter; endogenous in cells; host or cells: HaCaT keratinocyte reporter cell line (stably transfected with a NanoLuc reporter)
T1 sequence (P42226 1-847): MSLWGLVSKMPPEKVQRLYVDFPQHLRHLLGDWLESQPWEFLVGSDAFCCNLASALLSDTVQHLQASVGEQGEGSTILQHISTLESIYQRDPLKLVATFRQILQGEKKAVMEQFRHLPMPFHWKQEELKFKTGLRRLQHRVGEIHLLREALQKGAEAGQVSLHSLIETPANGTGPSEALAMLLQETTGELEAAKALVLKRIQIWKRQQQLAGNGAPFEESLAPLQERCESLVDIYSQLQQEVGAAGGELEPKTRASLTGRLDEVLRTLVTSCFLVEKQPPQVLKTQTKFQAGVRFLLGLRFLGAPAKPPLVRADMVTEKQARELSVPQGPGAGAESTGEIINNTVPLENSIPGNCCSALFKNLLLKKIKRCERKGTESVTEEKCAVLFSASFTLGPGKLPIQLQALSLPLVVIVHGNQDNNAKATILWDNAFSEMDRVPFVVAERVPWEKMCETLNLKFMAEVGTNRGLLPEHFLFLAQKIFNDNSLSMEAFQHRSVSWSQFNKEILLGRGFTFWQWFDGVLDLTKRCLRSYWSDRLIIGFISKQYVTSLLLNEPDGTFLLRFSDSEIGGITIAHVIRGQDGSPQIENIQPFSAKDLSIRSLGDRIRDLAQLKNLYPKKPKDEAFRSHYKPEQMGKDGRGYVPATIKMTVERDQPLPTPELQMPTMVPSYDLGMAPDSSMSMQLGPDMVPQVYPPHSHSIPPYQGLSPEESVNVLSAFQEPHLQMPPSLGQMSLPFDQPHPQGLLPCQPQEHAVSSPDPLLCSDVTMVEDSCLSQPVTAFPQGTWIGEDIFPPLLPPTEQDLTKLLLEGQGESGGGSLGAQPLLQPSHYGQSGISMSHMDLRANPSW
Description: STAT6 Reporter Luciferase Assay (IL-13 stimulated HaCaT keratinocyte NanoLuc reporter cells). It counts as cell-based. The following applies: read-out: Reporter EC50. Put shortly: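 Stably transfected HaCaT cells carrying NanoLuc under the STAT6-responsive IL-13Ra2 promoter were pre-treated with compound (11-point, 4-fold series, duplicate) for 2 h at 37 °C, then stimulated with 0.12 nM IL-13 for 4 h. Nano-Glo luminescence was read after 15 min.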

The test system of assay [1] is CCL17 secretion in peripheral human whole blood. Description: Human Whole Blood (HWB) CCL17 TR-FRET Assay (IL-13 stimulated CCL17 secretion). Type of assay: cell-based. Put shortly:
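Measured here: CCL17 in serum by TR-FRET (665/615 nm) after overnight (16 h) room-temperature detection. The blood, heparinized and compound-treated for 2 h, received IL-13 at 10 ng/mL final and was cultured 48 h at 37 °C.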
Background: TR-FRET usually uses a lanthanide donor and a delayed reading to cut background.

Where [2] appears, read: IL-13 stimulated HaCaT STAT6 NanoLuc reporter cells.
Setting [3] is: Homo sapiens, 48 h, human whole blood, IL-13 stimulated.
The mark [4] stands for this setting: Homo sapiens, 48 h, human whole blood, 10 ng/mL IL13, 48 hours.
[5] abbreviates: STAT6 NanoLuc luciferase reporter, IL-13 stimulated HaCaT keratinocyte cells.
The mark [6] stands for this setting: Homo sapiens, 48 h, inhibition of CCL17 secretion in human whole blood, 10 ng/mL IL13, 48 hours.
[7] abbreviates: human whole blood, IL-13 stimulated, 48 hours.

For `CC(C)n1nc(C(=O)NCc2ccc(NC(=O)N(C)CC(F)F)cc2)c2c1CCN(c1ccc(C(=O)N(C)C)cn1)C2` [Example 189, N-(4-(3-(2,2-difluoroethyl)-3-methylureido)benzyl)-5-(5-(dimethylcarbamoyl)pyridin-2-yl)-1-isopropyl-4,5,6,7-tetrahydro-1H-pyrazolo[4,3-c]pyridine-3-carboxamide], the EC50 at STAT6 (setting [2]) amounted to 0.01 µM. The molecule also registered an IC50 in assay [1] (setting [3]) of 0.095 µM.
Take `CC(C)n1nc(C(=O)NCc2ccc(NC(=O)N(C)C)cc2)c2c1C1(CC1)CN(c1ccc(C(=O)N(C)C)cn1)C2` [Example 266, 5′-(5-(dimethylcarbamoyl)pyridin-2-yl)-N-(4-(3,3-dimethylureido)benzyl)-1′-isopropyl-1′,4′,5′,6′-tetrahydrospiro[cyclopropane-1,7′-pyrazolo[4,3-c]pyridine]-3′-carboxamide]: the EC50 at STAT6 (setting [2]) was 0.003 µM. Half-maximal inhibition in assay [1] (setting [3]) (IC50) required 0.045 µM.
For `CCc1nc(C(=O)NCc2ccc(NC(=O)N(C)C)cc2)c2n1C(C)CN(c1ccc(C(=O)N(C)C)cc1)C2` (racemic) [Example 399, rac-(R)-7-(4-(dimethylcarbamoyl)phenyl)-N-(4-(3,3-dimethylureido)benzyl)-3-ethyl-5-methyl-5,6,7,8-tetrahydroimidazo[1,5-a]lpyrazine-1-carboxamide], the EC50 at STAT6 (setting [2]) was found to be 0.002 µM. This molecule displayed an IC50 in assay [1] (setting [3]) of 0.009 µM.
On to `CC(C)n1nc(C(=O)NCc2ccc(NC(=O)N3CCN(C)CC3)c(F)c2)c2c1[C@@H](C)CN(c1ccc(-n3ccccc3=O)cn1)C2` [Example 610, (S)-N-(3-fluoro-4-(4-methylpiperazine-1-carboxamido)benzyl)-1-isopropyl-7-methyl-5-(2-oxo-2H-[1,3′-bipyridin]-6′-yl)-4,5,6,7-tetrahydro-1H-pyrazolo[4,3-c]pyridine-3-carboxamide], for which the EC50 at STAT6 (setting [2]) came to 0.002 µM. The IC50 in assay [1] (setting [4]) worked out at 0.017 µM.
With `CC(C)n1nc(C(=O)NCc2ccc(NC(=O)N3CC4(CN(C)C4)C3)c(F)c2)c2c1[C@@H](C)CN(c1ccc(C(=O)N(C)C)cn1)C2` [Example 604, (S)-5-(5-(dimethylcarbamoyl)pyridin-2-yl)-N-(3-fluoro-4-(6-methyl-2,6-diazaspiro[3.3]heptane-2-carboxamido)benzyl)-1-isopropyl-7-methyl-4,5,6,7-tetrahydro-1H-pyrazolo[4,3-c]pyridine-3-carboxamide], on STAT6 (setting [2]), the EC50 was 0.004 µM. The molecule also registered an IC50 in assay [1] (setting [4]) of 0.029 µM.
With `CC(=O)Nc1ccc(CNC(=O)c2nn(C(C)C)c3c2CN(c2ccc(C(=O)N(C)C)cn2)CC3)cc1` [Example 147, N-(4-acetamidobenzyl)-5-(5-(dimethylcarbamoyl)pyridin-2-yl)-1-isopropyl-4,5,6,7-tetrahydro-1H-pyrazolo[4,3-c]pyridine-3-carboxamide], the EC50 on STAT6 (setting [5]) was 0.026 µM. In assay [1] (setting [6]), this molecule registered an IC50 of 0.252 µM.
Regarding `CC(C)n1nc(C(=O)NCc2ccc(C(N)=O)cc2)c2c1[C@@H](C)CN(c1ccc(C(=O)N3Cc4cccnc4C3)cn1)C2` [Example 395, (S)—N-(4-Carbamoylbenzyl)-5-(5-(6,7-dihydro-5H-pyrrolo[3,4-b]pyridine-6-carbonyl)pyridin-2-yl)-1-isopropyl-7-methyl-4,5,6,7-tetrahydro-1H-pyrazolo[4,3-c]pyridine-3-carboxamide], the EC50 at STAT6 (setting [2]) amounted to 0.001 µM. The molecule further registered an IC50 in assay [1] (setting [3]) of 0.006 µM.
As to `CCn1nc(C(=O)NCc2ccc(NC(=O)N(C)C)cc2)c2c1C(C(F)(F)F)CN(c1ccc(C(=O)N(C)C)cn1)C2` (single isomer, unassigned) [Example 304, rel-(R or S)-5-(5-(dimethylcarbamoyl)pyridin-2-yl)-N-(4-(3,3-dimethylureido)benzyl)-1-ethyl-7-(trifluoromethyl)-4,5,6,7-tetrahydro-1H-pyrazolo[4,3-c]pyridine-3-carboxamide], the EC50 on STAT6 (setting [2]) stood at 0.0003 µM. In assay [1] (setting [7]), this molecule yielded an IC50 of 0.004 µM.
As to `CC(C)n1nc(C(=O)NCc2ccc(NC(=O)N(C)C)cc2)c2c1C(O)CN(c1ccc(C(=O)N(C)C)cn1)C2` (single isomer, unassigned) [Example 474, rel-(R or S)-5-(5-(dimethylcarbamoyl)pyridin-2-yl)-N-(4-(3,3-dimethylureido)benzyl)-7-hydroxy-1-isopropyl-4,5,6,7-tetrahydro-1H-pyrazolo[4,3-c]pyridine-3-carboxamide], the EC50 at STAT6 (setting [2]) is 0.04 µM. Further, in assay [1] (setting [7]), 0.085 µM corresponded to half-maximal inhibition (IC50).
For the molecule `CC(C)n1nc(C(=O)NCc2ccc(NC(=O)N3CC4(CCNCC4)C3)cc2)c2c1[C@@H](C)CN(c1ccc(C(=O)N(C)C)cc1)C2` [Example 626, (S)-N-(4-(2,7-diazaspiro[3.5]nonane-2-carboxamido)benzyl)-5-(4-(dimethylcarbamoyl)phenyl)-1-isopropyl-7-methyl-4,5,6,7-tetrahydro-1H-pyrazolo[4,3-c]pyridine-3-carboxamide], at STAT6 (setting [2]), the EC50 worked out at 0.038 µM. Besides, the IC50 in assay [1] (setting [4]) was found to be 0.088 µM.
For `CC(C1CCC1)n1nc(C(=O)NCc2ccc(NC(=O)N(C)C)cc2)c2c1CCN(c1ccc(C(=O)N(C)C)cn1)C2` (centres unmarked) [Example 263, 1-(1-cyclobutylethyl)-5-(5-(dimethylcarbamoyl)pyridin-2-yl)-N-(4-(3,3-dimethylureido)benzyl)-4,5,6,7-tetrahydro-1H-pyrazolo[4,3-c]pyridine-3-carboxamide], the EC50 at STAT6 (setting [2]) worked out at 0.009 µM. Besides, the IC50 in assay [1] (setting [3]) is 0.13 µM.
Turning to `CC(C)n1nc(C(=O)NCc2ccc(NC(=O)N(C)C)cc2)c2c1[C@@H](C)CN(c1ccc(C(=O)N(C)CC3CCN(C)CC3)cc1)C2` [Example 635, (S)-N-(4-(3,3-dimethylureido)benzyl)-1-isopropyl-7-methyl-5-(4-(methyl((1-methylpiperidin-4-yl)methyl)carbamoyl)phenyl)-4,5,6,7-tetrahydro-1H-pyrazolo[4,3-c]pyridine-3-carboxamide], the EC50 at STAT6 (setting [2]) came to 0.014 µM. Further, in assay [1] (setting [4]), half-maximal inhibition (IC50) was put at 0.071 µM.
Regarding `CCn1nc(C(=O)NCc2ccc(NC(=O)N(C)C)cc2)c2c1CC(C(F)(F)F)N(c1ccc(C(=O)N(C)C)cn1)C2` (single isomer, unassigned) [Example 250, rel-(R or S)-5-(5-(dimethylcarbamoyl)pyridin-2-yl)-N-(4-(3,3-dimethylureido)benzyl)-1-ethyl-6-(trifluoromethyl)-4,5,6,7-tetrahydro-1H-pyrazolo[4,3-c]pyridine-3-carboxamide], the EC50 at STAT6 (setting [2]) was determined as 0.002 µM. For the same molecule, in assay [1] (setting [7]), 0.028 µM corresponded to half-maximal inhibition (IC50).
For the molecule `CO[C@H]1CN(C(=O)Nc2ccc(CNC(=O)c3nn(C(C)C)c4c3CN(c3ccc(C(=O)N(C)C)cn3)CC4)cc2)C[C@@H]1O` [Example 166, 5-(5-(dimethylcarbamoyl)pyridin-2-yl)-N-(4-((3S,4S)-3-hydroxy-4-methoxypyrrolidine-1-carboxamido)benzyl)-1-isopropyl-4,5,6,7-tetrahydro-1H-pyrazolo[4,3-c]pyridine-3-carboxamide], the EC50 on STAT6 (setting [5]) was found to be 0.004 µM. The molecule also displayed an IC50 in assay [1] (setting [6]) of 0.021 µM.
For `CC(C)n1nc(C(=O)NCc2ccc(NC(=O)N3C[C@H]4CC[C@@H](C3)N4)c(F)c2)c2c1[C@@H](C)CN(c1ccc(C(=O)N(C)C)cc1)C2` (mixture of isomers) [Example 573, (S)-N-(4-((1RS,5SR)-3,8-diazabicyclo[3.2.1]octane-3-carboxamido)-3-fluorobenzyl)-5-(4-(dimethylcarbamoyl)phenyl)-1-isopropyl-7-methyl-4,5,6,7-tetrahydro-1H-pyrazolo[4,3-c]pyridine-3-carboxamide], at STAT6 (setting [2]), the EC50 is 0.001 µM. In addition, the IC50 in assay [1] (human whole blood, 10 ng/mL IL13, 48 hours) amounted to 0.011 µM.
With `CC(C)n1nc(C(=O)NCc2ccc(-c3ncc[nH]3)cc2)c2c1CCN(c1ccc(C(=O)N(C)C)cn1)C2` [Example 11, N-(4-(1H-imidazol-2-yl)benzyl)-5-(5-(dimethylcarbamoyl)pyridin-2-yl)-1-isopropyl-4,5,6,7-tetrahydro-1H-pyrazolo[4,3-c]pyridine-3-carboxamide], the EC50 on STAT6 (setting [5]) was determined as 0.016 µM. The same molecule gave an IC50 in assay [1] (setting [6]) of 0.205 µM.

Usually EC50 stands for the midpoint of the concentration-response curve. By IC50 is commonly meant the concentration that inhibits the measured activity by half. Read a low IC50 as higher potency.
